Measurements from patent publication US10882854B2, “Heterocyclic compounds and use thereof” (National Health Research Institutes, priority 2017, dated 2021).
“Also recorded” adds a separate entry of the source.

Tests used:
HCC cell line HCA-1 = experiment: Syngeneic orthotopic hepatocellular carcinoma (HCC) mouse model; format: in vivo, C3H mice; details: for tumor size: C3H mice with orthotopic HCA-1, 10 mg/kg/day by osmotic pump for two weeks, combined with sorafenib 40 mg/kg daily, control about 400 mm^3
Description: The efficacy of a compound of Formula (I), i.e., Compounds 42, in treating HCC was assessed using a syngeneic mouse model as follows.
C3H mouse-derived HCC cell line HCA-1 was used. HCA-1 cells were orthotopically implanted in C3H mice for 10 days. The mice were subsequently treated with sorafenib (a small molecule drug for treating hepatocellular carcinoma; 40 mg/kg) daily for two weeks or treated with vehicle (PBS) alone as a control. Tested compounds, e.g., AMD3100 (10 mg/kg/day) and Compound 42 (10 mg/kg/day), were each administered continuously to those mice treated with sorafenib using an Alzet osmotic pump (DURECT Corporation, Cupertino, Calif.) for two weeks.

[1] = system: Hematopoietic stem cells (CD34+) and endothelial progenitor cells (CD133+); experiment: Mobilization of stem/progenitor cells into peripheral blood in mice; format: in vivo, C57BL/6 male mice
[2] = system: T-cell acute lymphoblastic leukemia (CCRF-CEM) cells; experiment: Inhibition of CXCL12-induced chemotaxis in lymphoblastic leukemia cells; format: cell-based; details: Homo sapiens, CXCL12 10 nM, 2.5 h at 37 °C, read-out: concentration required to inhibit chemotaxis by 50% (EC50)
Description: The response of cancer cells to compounds of Formula (I) was evaluated using the chemotaxis assay as set forth below.
T-cell acute lymphoblastic leukemia (CCRF-CEM) cells in Roswell Park Memorial Institute medium (RPMI) 1640 supplemented with 10% […] were incubated with 250 μL of a test compound. The assay was performed using Millicell Hanging Cell Culture Inserts (pore size 5 μm; 24-well plate; Millipore, Bedford, Mass., USA). After 10 minutes at 37° C., 250 μL of cells pre-incubated with a test compound were plated per well in the upper chambers of the inserts at a density of 2.5×10^5 cells/well. 300 μL/well medium containing CXCL12 (10 nM) and a test compound were plated in the lower chamber of the insert. After 2.5 h at 37° C., cells in both chambers of inserts were measured by flow cytometry (Guava Technologies, Hayward, Calif., USA).

human CXCR4 = target: T1, human CXCR4 (Homo sapiens, UniProt P61073); experiment: Inhibition of 125I-CXCL12 radioligand binding, membranes of human CXCR4-transfected HEK293 cells; details: 0.16 nM 125I-CXCL12, 60 min at 30 °C, read-out: concentration required to inhibit binding of 125I-CXCL12 to CXCR4 by 50% (IC50)
T1 construct: expressed in transfected cells; host or cells: HEK293 cells (membranes)
Description: Binding competition between the compounds of Formula (I) and human CXCL12 was assessed using a radioligand binding assay as described below.
Membranes (2-4 μg) prepared from human CXCR4-transfected HEK293 cells in 40 μL of assay buffer (50 mM HEPES-NaOH, pH 7.4, 100 mM NaCl, 5 mM MgCl2, 1 mM CaCl2, 0.5% bovine serum albumin) were incubated with 20 μL of radio-labeled ^125I-CXCL12 (0.16 nM) and 20 μL of a test compound in an assay plate (Costar Corning, Cambridge, Mass.). After 60 minutes at 30° C., the incubation was terminated by transferring the resulting reaction mixture to a 96-well GF/B filter plate (Millipore Corp., Billerica, Mass.) and filtered via a manifold. The plate was washed with 100 μL of ice-cold wash buffer (50 mM HEPES-NaOH, pH 7.4, 100 mM NaCl) four times. The radioactivity bound to the filter was measured by Topcount (PerkinElmer Inc., Waltham, Mass.).

[3] = system: acute Kidney Injury (AKI) model; experiment: Ischemia-reperfusion acute kidney injury (AKI) model in rats; format: in vivo, male Sprague-Dawley rats; details: 6 mg/Kg subcutaneous 40 min before AKI, blood 24 h after induction of AKI
Description: The efficacy of five compounds of Formula (I) in treating Ischemia-Reperfusion injury was assessed using both an acute kidney injury model, an ischemic stroke model, and a limb ischemia model. These five compounds are Compounds 13, 35, 40, 45, and 46. In an acute Kidney Injury (AKI) model, each of the five compounds was dissolved in saline to form a solution. The solution was administered to male Sprague-Dawley rats (National Laboratory Animal Center, Taipei, Taiwan) subcutaneously at a dosage of 6 mg/Kg. 40 minutes after the subcutaneous injection, AKI was induced in the rats by clamping their bilateral renal vein and artery for one hour followed by releasing the vessel clips to allow 24-h reperfusion. Whole blood was collected at 24-h after induction of AKI. Blood urea nitrogen (BUN) and serum creatinine (Scr), two markers that increase upon kidney injury, were measured using a FUJI DRI-CHEM 3500s analyzer (Fujifilm, Tokyo, Japan). Non-AKI rats and AKI rats treated with saline were used as controls.

[4] = system: rat ischemic myocardial infarction model; experiment: Rat ischemic myocardial infarction model; format: in vivo, Male SD rats; details: SD rats; 5 mg/kg single subcutaneous injection 30 minutes before LAD ligation; 24 hours; versus saline
Description: The efficacy of a compound of Formula (I), i.e., Compound 42, in protecting against myocardial infarction was assessed in a rat ischemic myocardial infarction model as follows.
Male SD rats (400-500 gram each) received a single subcutaneous injection of Compound 42 at a dosage of 5 mg/kg or an equal volume of saline (n=18-20 per group) 30 minutes before surgery was conducted. Left anterior descending artery (LAD) was transiently ligated using a 6-0 nylon suture for a 30-minute ischemic period in this surgery. After 24 hours, each rat was anesthetized and the LAD was ligated again. 2 mL of 5% Evan's Blue was then injected into the tail vein and allowed to perfuse for 2 minutes. The heart was immediately excised, washed with saline, froze at −80° C., and cut in semi-frozen state into 2-mm thick sections. Slices were then incubated in 1% tri-phenyltetrazolium chloride solution for 10 minutes at 37° C. and fixed in 10% formalin. Infarct size was recorded after staining.

[5] = system: mild traumatic brain injury (mTBI) model; experiment: Mild traumatic brain injury (mTBI) model in mice; format: in vivo, Adult CD1 mice; details: CD1 mice, versus vehicle

T1 sequence (P61073 whole entry): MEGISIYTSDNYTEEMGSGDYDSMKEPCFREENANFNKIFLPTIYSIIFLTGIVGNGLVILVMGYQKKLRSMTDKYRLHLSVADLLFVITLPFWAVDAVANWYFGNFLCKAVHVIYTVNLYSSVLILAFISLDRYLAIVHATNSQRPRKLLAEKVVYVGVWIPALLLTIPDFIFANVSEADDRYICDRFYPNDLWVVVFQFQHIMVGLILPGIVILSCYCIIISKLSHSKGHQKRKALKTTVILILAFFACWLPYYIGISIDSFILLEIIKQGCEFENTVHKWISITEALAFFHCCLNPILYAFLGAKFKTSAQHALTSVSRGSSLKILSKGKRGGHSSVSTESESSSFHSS

c1cc(CN2CCCNCCNCCCNCC2)ccc1CN1CCCNCCNCCCNCC1 [AMD3100, reference compound]
tumor size (HCC cell line HCA-1): about 250 mm^3

N[C@@H](CCC(=O)NCCN1CCC(Nc2nc(NCc3nc(CCCNCCCNC4CCCCC4)cs3)nc3ccccc23)CC1)C(=O)NCCP(=O)(O)O [Compound 49]
hematopoietic stem cell mobilization combined with G-CSF (CFU-GM numbers) [1]: mobilize hematopoietic stem cells synergistically
EC50 [2]: < 0.05 µM
IC50 (human CXCR4): 0.05 to 0.1 µM

c1ccc2c(NC3CCNCC3)nc(NCc3nnn(CCCNCCCNC4CCCCC4)n3)nc2c1 [Compound 13]
EC50 [2]: < 0.05 µM
IC50 (human CXCR4): < 0.05 µM
BUN level relative to that induced in saline-treated AKI rats [3]: 25%
Scr (serum creatinine) level relative to that induced in saline-treated AKI rats [3]: 56%

N[C@@H](CCC(=O)NCCN1CCC(Nc2nc(NCc3nc(CCCNCCCNC4CCCCC4)co3)nc3ccccc23)CC1)C(=O)NCCP(=O)(O)O [Compound 50]
hematopoietic stem cell mobilization combined with G-CSF (CFU-GM numbers) [1]: mobilize hematopoietic stem cells synergistically
EC50 [2]: 0.05 to 0.15 µM
IC50 (human CXCR4): 0.05 to 0.1 µM

Cc1cc(NC2CCN(C(=O)CCCNCC(=O)O)CC2)nc(NCc2nnn(CCCNCCCNC3CCCCC3)n2)n1 [Compound 62]
EC50 [2]: < 0.05 µM
IC50 (human CXCR4): 0.05 to 0.1 µM

N[C@@H](CCC(=O)N1CCC(Nc2nc(NCc3nc(CCCNCCCNC4CCCCC4)cs3)nc3ccccc23)CC1)C(=O)O [Compound 31]
EC50 [2]: < 0.05 µM
IC50 (human CXCR4): 0.05 to 0.1 µM

c1ccc2c(NC3CCNCC3)nc(NCc3cc(CCCNCCCNC4CCCCC4)on3)nc2c1 [Compound 1]
EC50 [2]: < 0.05 µM
IC50 (human CXCR4): < 0.05 µM

c1ccc2c(NC3CCNCC3)nc(NCc3nnc(CCCNCCCNC4CCCCC4)o3)nc2c1 [Compound 6]
EC50 [2]: < 0.05 µM
IC50 (human CXCR4): < 0.05 µM

O=C(O)CNCCC(=O)N1CCC(Nc2nc(NCc3nnn(CCCNCCCNC4CCCCC4)n3)nc3ccccc23)CC1 [Compound 61]
EC50 [2]: < 0.05 µM
IC50 (human CXCR4): 0.05 to 0.1 µM

CCc1cc(NC2CCNCC2)nc(NCc2nnn(CCCNCCCNC3CCCCC3)n2)n1 [Compound 26]
EC50 [2]: < 0.05 µM
IC50 (human CXCR4): 0.05 to 0.1 µM

c1ccc2c(NC3CCNCC3)nc(NCc3nc(CCCNCCCNC4CCCCC4)cs3)nc2c1 [Compound 3]
EC50 [2]: < 0.05 µM
IC50 (human CXCR4): < 0.05 µM

N[C@@H](CCC(=O)NCCN1CCC(Nc2nc(NCc3cc(CCCNCCCNC4CCCCC4)on3)nc3ccccc23)CC1)C(=O)NCCP(=O)(O)O [Compound 47]
EC50 [2]: < 0.05 µM
IC50 (human CXCR4): 0.05 to 0.1 µM

N[C@@H](CCC(=O)N1CCC(Nc2nc(NCc3nnc(CCCNCCCNC4CCCCC4)o3)nc3ccccc23)CC1)C(=O)O [Compound 34]
EC50 [2]: 0.05 to 0.15 µM
IC50 (human CXCR4): 0.05 to 0.1 µM

N[C@@H](CCC(=O)N1CCC(Nc2nc(NCc3nnn(CCCNCCCNC4CCCCC4)n3)nc3ccccc23)CC1)C(=O)O [Compound 37]
EC50 [2]: < 0.05 µM
IC50 (human CXCR4): 0.05 to 0.1 µM

Cc1cc(NC2CCNCC2)nc(NCc2nnn(CCCNCCCNC3CCCCC3)n2)n1 [Compound 23]
EC50 [2]: < 0.05 µM
IC50 (human CXCR4): < 0.05 µM

Cc1cc(NC2CCN(C(=O)CCNCC(=O)O)CC2)nc(NCc2coc(CCCNCCCNC3CCCCC3)n2)n1 [Compound 40]
hematopoietic stem cell mobilization combined with G-CSF (CFU-GM numbers) [1]: mobilize hematopoietic stem cells synergistically
EC50 [2]: < 0.05 µM
IC50 (human CXCR4): < 0.05 µM
BUN level relative to that induced in saline-treated AKI rats [3]: 20%
Scr (serum creatinine) level relative to that induced in saline-treated AKI rats [3]: 36%

Cc1cc(NC2CCNCC2)nc(NCc2nnc(CCCNCCCNC3CCCCC3)s2)n1 [Compound 21]
EC50 [2]: < 0.05 µM
IC50 (human CXCR4): < 0.05 µM

N[C@@H](CCC(=O)NCCN1CCC(Nc2nc(NCc3coc(CCCNCCCNC4CCCCC4)n3)nc3ccccc23)CC1)C(=O)NCCP(=O)(O)O [Compound 48]
EC50 [2]: < 0.05 µM
IC50 (human CXCR4): 0.05 to 0.1 µM

N[C@@H](CCC(=O)N1CCC(Nc2nc(NCc3nnc(CCCNCCCNC4CCCCC4)[nH]3)nc3ccccc23)CC1)C(=O)O [Compound 38]
EC50 [2]: < 0.05 µM
IC50 (human CXCR4): 0.05 to 0.1 µM

Cc1cc(NC2CCN(C(=O)CCNCC(=O)O)CC2)nc(NCc2nc(CCCNCCCNC3CCCCC3)co2)n1 [Compound 42]
protection of heart against ischemic damage (infarct size) [4]: protected heart against ischemic damage to a large degree
body weight loss (HCC cell line HCA-1; C3H mice with HCA-1 tumors, 10 mg/kg/day for two weeks): no significant body weight loss
tumor size (HCC cell line HCA-1): about 50 mm^3
EC50 [2]: < 0.05 µM
vertical activity and vertical movement time in mTBI mice ([5]; 3 mg/kg, 24 hours starting 15-minute after injury): significantly improved vertical activity
expression of inflammatory marker IBA1 in the lesioned cortex (qRTPCR) ([5]; 3 mg/kg, cortex collected day 5 after mTBI, 3 mg/kg): significantly reduced IBA1 expression; also recorded: significantly suppressed
locomotor activity after mTBI ([5]; early post-treatment given systemically after mTBI): significantly improved locomotor activity
IC50 (human CXCR4): < 0.05 µM

N[C@@H](CCC(=O)N1CCC(Nc2nc(NCc3nc(CCCNCCCNC4CCCCC4)co3)nc3ccccc23)CC1)C(=O)O [Compound 32]
EC50 [2]: < 0.05 µM
IC50 (human CXCR4): 0.05 to 0.1 µM

Cc1cc(NC2CCNCC2)nc(NCc2cc(CCCNCCCNC3CCCCC3)on2)n1 [Compound 15]
EC50 [2]: < 0.05 µM
IC50 (human CXCR4): < 0.05 µM

Cc1cc(NC2CCNCC2)nc(NCc2coc(CCCNCCCNC3CCCCC3)n2)n1 [Compound 16]
EC50 [2]: < 0.05 µM
IC50 (human CXCR4): < 0.05 µM

Cc1cc(NC2CCN(C(=O)CCNCC(=O)O)CC2)nc(NCc2nnn(CCCNCCCNC3CCCCC3)n2)n1 [Compound 46]
EC50 [2]: 0.05 to 0.15 µM
IC50 (human CXCR4): 0.05 to 0.1 µM
BUN level relative to that induced in saline-treated AKI rats [3]: 22%
Scr (serum creatinine) level relative to that induced in saline-treated AKI rats [3]: 22%

N[C@@H](CCC(=O)N1CCC(Nc2nc(NCc3nnc(CCCNCCCNC4CCCCC4)s3)nc3ccccc23)CC1)C(=O)O [Compound 35]
EC50 [2]: < 0.05 µM
IC50 (human CXCR4): 0.05 to 0.1 µM
BUN level relative to that induced in saline-treated AKI rats [3]: 15%
Scr (serum creatinine) level relative to that induced in saline-treated AKI rats [3]: 22%

Cc1cc(NC2CCN(C(=O)CCNCC(=O)O)CC2)nc(NCc2nnc(CCCNCCCNC3CCCCC3)s2)n1 [Compound 45]
hematopoietic stem cell mobilization combined with G-CSF (CFU-GM numbers) [1]: mobilize hematopoietic stem cells synergistically
EC50 [2]: < 0.05 µM
IC50 (human CXCR4): 0.05 to 0.1 µM
BUN level relative to that induced in saline-treated AKI rats [3]: 11%
Scr (serum creatinine) level relative to that induced in saline-treated AKI rats [3]: 10%
